Test results reported in the supplement of paper PMC13380429.
± gives the standard deviation of the averaged measurements.

Experiments:
Settings in all cases: 72 h
U2OS [1] = assay: relative viability EC50 (midpoint between 100% and the lowest measured viability); higher = less toxic
Calu-3 [2] = assay: as above
HepG2 [3] = assay: as above
Caco-2 [4] = assay: as above
Vero E6 [5] = assay: as above
U2OS [6] = assay: cell viability relative to DMSO; higher = less toxic
Calu-3 [7] = assay: as above
HepG2 [8] = assay: as above
Caco-2 [9] = assay: as above
Vero E6 [10] = assay: as above
U2OS [11] = assay: drug sensitivity score (DSS) for viability; higher = more toxic; extreme values may be limits of the assay
Calu-3 [12] = assay: as above
HepG2 [13] = assay: as above
Caco-2 [14] = assay: as above
Vero E6 [15] = assay: as above

Compound | relative viability EC50 (U2OS [1]) [µM] | relative viability EC50 (Calu-3 [2]) [µM] | relative viability EC50 (HepG2 [3]) [µM] | relative viability EC50 (Caco-2 [4]) [µM] | relative viability EC50 (Vero E6 [5]) [µM] | cell viability (U2OS [6]; 1 nM) [%] | cell viability (U2OS [6]; 10 nM) [%] | cell viability (U2OS [6]; 100 nM) [%] | cell viability (U2OS [6]; 1000 nM) [%] | cell viability (U2OS [6]; 10000 nM) [%] | cell viability (Calu-3 [7]; 1 nM) [%] | cell viability (Calu-3 [7]; 10 nM) [%] | cell viability (Calu-3 [7]; 100 nM) [%] | cell viability (Calu-3 [7]; 1000 nM) [%] | cell viability (Calu-3 [7]; 10000 nM) [%] | cell viability (HepG2 [8]; 1 nM) [%] | cell viability (HepG2 [8]; 10 nM) [%] | cell viability (HepG2 [8]; 100 nM) [%] | cell viability (HepG2 [8]; 1000 nM) [%] | cell viability (HepG2 [8]; 10000 nM) [%] | cell viability (Caco-2 [9]; 1 nM) [%] | cell viability (Caco-2 [9]; 10 nM) [%] | cell viability (Caco-2 [9]; 100 nM) [%] | cell viability (Caco-2 [9]; 1000 nM) [%] | cell viability (Caco-2 [9]; 10000 nM) [%] | cell viability (Vero E6 [10]; 1 nM) [%] | cell viability (Vero E6 [10]; 10 nM) [%] | cell viability (Vero E6 [10]; 100 nM) [%] | cell viability (Vero E6 [10]; 1000 nM) [%] | cell viability (Vero E6 [10]; 10000 nM) [%] | drug sensitivity score (U2OS [11]) | drug sensitivity score (Calu-3 [12]) | drug sensitivity score (HepG2 [13]) | drug sensitivity score (Caco-2 [14]) | drug sensitivity score (Vero E6 [15])
O.O=[Si]=O.O=[Si]=O.O=[Si]=O.O=[Si]=O.[O]=[Mg].[O]=[Mg].[O]=[Mg] [Talc] | > 10 | > 10 | > 10 | > 10 | > 10 | 96.7 | 98.3 | 95.9 | 100 | 95.3 | 87 | 98.1 | 89.8 | 107 | 81.3 | 106 | 95.1 | 106 | 95.4 | 96.7 | 97.2 | 102 | 94.7 | 101 | 90 | 95.7 | 104 | 103 | 97 | 103 | 0 | 0.2 | 0 | 0 | 0
CS(=O)(=O)c1ccc(-c2cnc(N)c(C(=O)Nc3ccccc3)n2)cc1 [VE-821] | > 10 | > 10 | > 10 | > 10 | > 10 | 102 | 95.7 | 96.9 | 93.1 | 91.6 | 99.1 | 94.7 | 102 | 95.1 | 95.3 | 97.3 | 99.3 | 95 | 98.6 | 84.2 | 102 | 94.8 | 101 | 95.1 | 97.4 | 99.1 | 95.7 | 97.1 | 98 | 94 | 0 | 0 | 0.4 | 0 | 0
CCOc1cc(C(=O)N2CCC(N3CCN(C)CC3)CC2)ccc1Nc1ncc2c(n1)N(C1CCCC1)c1ccccc1C(=O)N2C [XMD17-109] | 2.01 | 3.09 | 1.45 | 1.48 | 1.21 | 99.6 | 95.6 | 101 | 89.5 | 28.4 | 104 | 87.2 | 99 | 99 | 4.4 | 101 | 105 | 94.2 | 76.9 | 25.2 | 96.1 | 104 | 99 | 81.6 | 32 | 94.3 | 97.1 | 94.4 | 62.1 | 8.8 | 5.7 | 5.5 | 7.2 | 6.5 | 9.5
Cn1c(=O)c2c(ncn2CC(=O)O)n(C)c1=O [acefylline] | > 10 | > 10 | > 10 | > 10 | > 10 | 98.7 | 97 | 96.8 | 95.5 | 97.8 | 104 | 101 | 114 | 93.8 | 102 | 93 | 98.8 | 102 | 95.1 | 108 | 102 | 98 | 114 | 110 | 105 | 104 | 105 | 107 | 105 | 86.5 | 0 | 0 | 0 | 0 | 0.1
CC(=O)N[C@@H](CCC(N)=O)C(=O)O [aceglutamide] | > 10 | > 10 | > 10 | > 10 | > 10 | 106 | 103 | 99.2 | 98.8 | 98.5 | 101 | 89.8 | 101 | 110 | 103 | 90.7 | 89.7 | 104 | 92.5 | 86.4 | 95.5 | 103 | 84.5 | 82.4 | 83 | 98.3 | 104 | 99.8 | 99.9 | 83.7 | 0 | 0 | 0 | 3.5 | 0.3
CC(=O)NO [acetohydroxamic-acid] | > 10 | > 10 | > 10 | > 10 | > 10 | 106 | 102 | 97.7 | 98.7 | 99.8 | 104 | 98.8 | 112 | 92.6 | 96.9 | 99.6 | 101 | 95.9 | 96.2 | 97.3 | 96.3 | 97.6 | 94.9 | 95.5 | 112 | 97.6 | 97.2 | 102 | 101 | 97.6 | 0 | 0 | 0 | 0 | 0
Cc1cnc(C(=O)O)c[n+]1[O-] [acipimox] | > 10 | > 10 | > 10 | > 10 | > 10 | 98.6 | 101 | 101 | 98.5 | 97 | 107 | 102 | 108 | 94.7 | 97.1 | 87.2 | 101 | 96.6 | 89.5 | 92.3 | 94.3 | 100 | 95.4 | 93.4 | 87.2 | 98.6 | 103 | 102 | 95.7 | 101 | 0 | 0 | 0 | 0 | 0
CN(C)C/C=C/C(=O)Nc1cc2c(Nc3ccc(F)c(Cl)c3)ncnc2cc1O[C@H]1CCOC1 [afatinib] | 2.32 | 0.0181 | 2.45 | 0.496 | 0.465 | 95.8 | 100 | 93.2 | 91.1 | 13.6 | 88.7 | 57.8 | 32.1 | 28.8 | 9.1 | 117 | 96.1 | 104 | 93.7 | 27.6 | 109 | 90.4 | 83 | 73.4 | 46.1 | 101 | 93.7 | 66 | 51.7 | 3.8 | 6.2 | 27.9 | 5 | 7.2 | 14.2
Cc1ccccc1-n1c(CF)nc2ccc(N)cc2c1=O [afloqualone] | > 10 | > 10 | > 10 | > 10 | > 10 | 98.3 | 97.9 | 102 | 98.6 | 102 | 98.1 | 96.8 | 101 | 108 | 109 | 100 | 94 | 100 | 83.3 | 93.7 | 98 | 102 | 104 | 101 | 110 | 105 | 98.2 | 100 | 102 | 92.4 | 0 | 0 | 0 | 0 | 0
CC(=O)OCC(=O)[C@H]1CC[C@H]2[C@@H]3CC[C@H]4C[C@H](O)CC[C@]4(C)[C@H]3C(=O)C[C@]12C [alfadolone-acetate] | > 10 | > 10 | > 10 | > 10 | > 10 | 105 | 97.7 | 98.7 | 103 | 100 | 99.9 | 101 | 99.8 | 111 | 91.3 | 98.7 | 101 | 109 | 104 | 102 | 99.9 | 102 | 102 | 101 | 100 | 106 | 104 | 98.3 | 104 | 97.3 | 0 | 0 | 0 | 0 | 0
CC(=O)[C@H]1CC[C@H]2[C@@H]3CC[C@H]4C[C@H](O)CC[C@]4(C)[C@H]3CC[C@]12C [allopregnanolone] | > 10 | > 10 | > 10 | > 10 | > 10 | 98.8 ± 4.2 | 99.65 ± 0.92 | 98.55 ± 0.35 | 100 ± 5 | 97.7 ± 0.28 | 104 ± 5.9 | 102 ± 5.4 | 95.05 ± 0.64 | 104 ± 5.8 | 103 ± 3.8 | 98.9 ± 6.8 | 92.4 ± 6.1 | 97.6 ± 7.2 | 99 ± 2.6 | 92 ± 3.5 | 98 ± 0.85 | 96.6 ± 1.1 | 96.2 ± 8.3 | 100 ± 3 | 103 ± 7.4 | 95.5 ± 3.5 | 101 ± 4.5 | 95 ± 3.5 | 97.9 ± 4.7 | 98.8 ± 4.5 | 0 | 0 | 0 | 0 | 0
COC(c1ccccc1)(c1ccccc1)[C@H](Oc1nc(C)cc(C)n1)C(=O)O [ambrisentan] | > 10 | > 10 | > 10 | > 10 | > 10 | 101 | 101 | 94.2 | 99.5 | 95.7 | 105 | 101 | 84.6 | 88.9 | 97 | 102 | 98.4 | 95.3 | 107 | 98.3 | 104 | 98.2 | 95.1 | 97.1 | 90.5 | 99.9 | 99.1 | 94.4 | 97.4 | 102 | 0 | 2.7 | 0 | 0 | 0
Cc1c(N(C)C)c(=O)n(-c2ccccc2)n1C [amidopyrine] | > 10 | > 10 | > 10 | > 10 | > 10 | 95.1 | 101 | 93.2 | 99.2 | 96.4 | 105 | 109 | 99.5 | 112 | 103 | 94.7 | 92.2 | 112 | 106 | 99.7 | 102 | 106 | 97.9 | 110 | 84 | 97.8 | 96.4 | 104 | 97.7 | 89.2 | 0 | 0 | 0 | 0.1 | 0
CC(CC(C(N)=O)(c1ccccc1)c1ccccc1)N(C)C (stereo not given) [aminopentamide] | > 10 | > 10 | > 10 | > 10 | > 10 | 95.8 | 94.9 | 101 | 101 | 101 | 110 | 97.8 | 104 | 92.2 | 98.9 | 100 | 99.6 | 95.2 | 103 | 104 | 95.3 | 90.2 | 97.1 | 92.8 | 98 | 95.9 | 96.1 | 91.5 | 98.3 | 104 | 0 | 0 | 0 | 0 | 0
